Literature values in PubChem BioAssay AID1259409 (Chemical Carcinogenesis Research Information System (CCRIS), 2018).
“And” between values parts separate entries of the source, which are not always exact repeats. Equal values may be shown once.

System: rodent chemically induced tumor inhibition, incidence and multiplicity
Test: CCRIS tumor inhibitor studies
Conditions: Dose [Inhibitor]: 0, Route [Inhibitor]: ORAL

Structure (SMILES)	tumour outcome (control, treated, inhibition, significance) (Carcinogen: AZOXYMETHANE, 25843-45-2, 0.02% IN DIET FOR FIRST 3 WK OF STUDY (STUDY DURATION: 1 YR), Species: RAT, Strain/Sex: F344/MALE, Target Tissue: Type of Lesion: INTESTINE: ADENOMA OR ADENOCARCINOMA, Dose [Carcinogen]: 15 MG/KG BW ONCE IN WK 1 AND ONCE IN WK 3 OF STUDY, Promoter: NONE USED)	tumour outcome (control, treated, inhibition, significance) (Carcinogen: AZOXYMETHANE, 25843-45-2, 100 PPM IN DIET FOR DURATION OF STUDY BEGINNING 1 WK POST CARCINOGEN TREATMENT (STUDY DURATION: 32 WK), Species: RAT, Strain/Sex: F344/MALE, Target Tissue: Type of Lesion: LARGE INTESTINE: ADENOCARCINOMA, Dose [Carcinogen]: 15 MG/KG BW 1/WK FOR 3 WK, Promoter: NONE USED)	tumour outcome (control, treated, inhibition, significance) (Carcinogen: AZOXYMETHANE, 25843-45-2, 100 PPM IN DIET FOR DURATION OF STUDY BEGINNING 1 WK POST CARCINOGEN TREATMENT (STUDY DURATION: 32 WK), Species: RAT, Strain/Sex: F344/MALE, Target Tissue: Type of Lesion: LARGE INTESTINE: ADENOMA, Dose [Carcinogen]: 15 MG/KG BW 1/WK FOR 3 WK, Promoter: NONE USED)	tumour outcome (control, treated, inhibition, significance) (Carcinogen: AZOXYMETHANE, 25843-45-2, 100 PPM IN DIET FOR DURATION OF STUDY BEGINNING 1 WK POST CARCINOGEN TREATMENT (STUDY DURATION: 32 WK), Species: RAT, Strain/Sex: F344/MALE, Target Tissue: Type of Lesion: SMALL INTESTINE: ADENOCARCINOMA, Dose [Carcinogen]: 15 MG/KG BW 1/WK FOR 3 WK, Promoter: NONE USED)	tumour outcome (control, treated, inhibition, significance) (Carcinogen: AZOXYMETHANE, 25843-45-2, 100 PPM IN DIET FOR DURATION OF STUDY BEGINNING 1 WK POST CARCINOGEN TREATMENT (STUDY DURATION: 32 WK), Species: RAT, Strain/Sex: F344/MALE, Target Tissue: Type of Lesion: SMALL INTESTINE: ADENOMA, Dose [Carcinogen]: 15 MG/KG BW 1/WK FOR 3 WK, Promoter: NONE USED)	tumour outcome (control, treated, inhibition, significance) (Carcinogen: AZOXYMETHANE, 25843-45-2, 200 PPM IN DIET FOR DURATION OF STUDY BEGINNING 1 WK POST CARCINOGEN TREATMENT (STUDY DURATION: 32 WK), Species: RAT, Strain/Sex: F344/MALE, Target Tissue: Type of Lesion: LARGE INTESTINE: ADENOCARCINOMA, Dose [Carcinogen]: 15 MG/KG BW 1/WK FOR 3 WK, Promoter: NONE USED)	tumour outcome (control, treated, inhibition, significance) (Carcinogen: AZOXYMETHANE, 25843-45-2, 200 PPM IN DIET FOR DURATION OF STUDY BEGINNING 1 WK POST CARCINOGEN TREATMENT (STUDY DURATION: 32 WK), Species: RAT, Strain/Sex: F344/MALE, Target Tissue: Type of Lesion: LARGE INTESTINE: ADENOMA, Dose [Carcinogen]: 15 MG/KG BW 1/WK FOR 3 WK, Promoter: NONE USED)	tumour outcome (control, treated, inhibition, significance) (Carcinogen: AZOXYMETHANE, 25843-45-2, 200 PPM IN DIET FOR DURATION OF STUDY BEGINNING 1 WK POST CARCINOGEN TREATMENT (STUDY DURATION: 32 WK), Species: RAT, Strain/Sex: F344/MALE, Target Tissue: Type of Lesion: SMALL INTESTINE: ADENOCARCINOMA, Dose [Carcinogen]: 15 MG/KG BW 1/WK FOR 3 WK, Promoter: NONE USED)	tumour outcome (control, treated, inhibition, significance) (Carcinogen: AZOXYMETHANE, 25843-45-2, 200 PPM IN DIET FOR DURATION OF STUDY BEGINNING 1 WK POST CARCINOGEN TREATMENT (STUDY DURATION: 32 WK), Species: RAT, Strain/Sex: F344/MALE, Target Tissue: Type of Lesion: SMALL INTESTINE: ADENOMA, Dose [Carcinogen]: 15 MG/KG BW 1/WK FOR 3 WK, Promoter: NONE USED)	tumour outcome (control, treated, inhibition, significance) (Carcinogen: N-METHYL-N'-NITRO-NITROSOGUANIDINE, 13830-58-5, 3.2 PPM IN FEED FOR 42 WK BEGINNING 1 MO POST CARCINOGEN TREATMENT (STUDY DURATION: 64 WK), Species: FISH, Strain/Sex: SHASTA RAINBOW TROUT/MALE,FEMALE, Target Tissue: Type of Lesion: KIDNEY: TUMOR, Dose [Carcinogen]: 35 PPM IN WATER FOR 30 MIN, Promoter: NONE)	tumour outcome (control, treated, inhibition, significance) (Carcinogen: N-METHYL-N'-NITRO-NITROSOGUANIDINE, 13830-58-5, 3.2 PPM IN FEED FOR 42 WK BEGINNING 1 MO POST CARCINOGEN TREATMENT (STUDY DURATION: 64 WK), Species: FISH, Strain/Sex: SHASTA RAINBOW TROUT/MALE,FEMALE, Target Tissue: Type of Lesion: LIVER: TUMOR, Dose [Carcinogen]: 35 PPM IN WATER FOR 30 MIN, Promoter: NONE)	tumour outcome (control, treated, inhibition, significance) (Carcinogen: N-METHYL-N'-NITRO-NITROSOGUANIDINE, 13830-58-5, 3.2 PPM IN FEED FOR 42 WK BEGINNING 1 MO POST CARCINOGEN TREATMENT (STUDY DURATION: 64 WK), Species: FISH, Strain/Sex: SHASTA RAINBOW TROUT/MALE,FEMALE, Target Tissue: Type of Lesion: STOMACH: TUMOR, Dose [Carcinogen]: 35 PPM IN WATER FOR 30 MIN, Promoter: NONE)	tumour outcome (control, treated, inhibition, significance) (Carcinogen: N-METHYL-N'-NITRO-NITROSOGUANIDINE, 13830-58-5, 3.2 PPM IN FEED FOR 42 WK BEGINNING 1 MO POST CARCINOGEN TREATMENT (STUDY DURATION: 64 WK), Species: FISH, Strain/Sex: SHASTA RAINBOW TROUT/MALE,FEMALE, Target Tissue: Type of Lesion: SWIM BLADDER: TUMOR, Dose [Carcinogen]: 35 PPM IN WATER FOR 30 MIN, Promoter: NONE)	tumour outcome (control, treated, inhibition, significance) (Carcinogen: N-METHYL-N'-NITRO-NITROSOGUANIDINE, 13830-58-5, 23 PPM IN FEED FOR 42 WK BEGINNING 1 MO POST CARCINOGEN TREATMENT (STUDY DURATION: 64 WK), Species: FISH, Strain/Sex: SHASTA RAINBOW TROUT/MALE,FEMALE, Target Tissue: Type of Lesion: KIDNEY: TUMOR, Dose [Carcinogen]: 35 PPM IN WATER FOR 30 MIN, Promoter: NONE)	tumour outcome (control, treated, inhibition, significance) (Carcinogen: N-METHYL-N'-NITRO-NITROSOGUANIDINE, 13830-58-5, 23 PPM IN FEED FOR 42 WK BEGINNING 1 MO POST CARCINOGEN TREATMENT (STUDY DURATION: 64 WK), Species: FISH, Strain/Sex: SHASTA RAINBOW TROUT/MALE,FEMALE, Target Tissue: Type of Lesion: STOMACH: TUMOR, Dose [Carcinogen]: 35 PPM IN WATER FOR 30 MIN, Promoter: NONE)	tumour outcome (control, treated, inhibition, significance) (Carcinogen: N-METHYL-N'-NITRO-NITROSOGUANIDINE, 13830-58-5, 104 PPM IN FEED FOR 42 WK BEGINNING 1 MO POST CARCINOGEN TREATMENT (STUDY DURATION: 64 WK), Species: FISH, Strain/Sex: SHASTA RAINBOW TROUT/MALE,FEMALE, Target Tissue: Type of Lesion: KIDNEY: TUMOR, Dose [Carcinogen]: 35 PPM IN WATER FOR 30 MIN, Promoter: NONE)	tumour outcome (control, treated, inhibition, significance) (Carcinogen: N-METHYL-N'-NITRO-NITROSOGUANIDINE, 13830-58-5, 104 PPM IN FEED FOR 42 WK BEGINNING 1 MO POST CARCINOGEN TREATMENT (STUDY DURATION: 64 WK), Species: FISH, Strain/Sex: SHASTA RAINBOW TROUT/MALE,FEMALE, Target Tissue: Type of Lesion: LIVER: TUMOR, Dose [Carcinogen]: 35 PPM IN WATER FOR 30 MIN, Promoter: NONE)	tumour outcome (control, treated, inhibition, significance) (Carcinogen: N-METHYL-N'-NITRO-NITROSOGUANIDINE, 13830-58-5, 104 PPM IN FEED FOR 42 WK BEGINNING 1 MO POST CARCINOGEN TREATMENT (STUDY DURATION: 64 WK), Species: FISH, Strain/Sex: SHASTA RAINBOW TROUT/MALE,FEMALE, Target Tissue: Type of Lesion: STOMACH: TUMOR, Dose [Carcinogen]: 35 PPM IN WATER FOR 30 MIN, Promoter: NONE)
O=C1C=C(/C=C/c2ccccc2)C(O)O1 (stereo not drawn)	20/27 (74%), 7/18 (39%), 47%, p<0.02	10/30 (33%), 5/28 (18%), 45%, not significant	1/30 (3%), 2/28 (7%), -133%, not significant	12/30 (40%), 7/28 (25%), 38%, not significant	1/30 (3%), 1/28 (4%), -33%, not significant	10/30 (33%), 3/28 (11%), 67%, p<0.05	1/30 (3%), 2/28 (7%), -133%, not significant	12/30 (40%), 2/28 (7%), 83%, p<0.005	1/30 (3%), 0/28 (0%), 100%, not significant	–	–	–	–	–	–	–	–	–
CCCC[C@@H](C)[C@@H](OC(=O)C[C@@H](CC(=O)O)C(=O)O)[C@H](C[C@@H](C)C[C@H](O)CCCC[C@@H](O)C[C@H](O)[C@H](C)N)OC(=O)C[C@@H](CC(=O)O)C(=O)O	–	–	–	–	–	–	–	–	–	19%, 14%, 26%, not significant	45%, 25%, 44%, not significant	32%, 40%, -25%, not significant	54%, 44%, 18%, not significant	19%, 13%, 32%, not significant	32%, 31%, 3%, not significant	19%, 6%, 68%, p<0.05	45%, 76%, -69%, p<0.05	32%, 12%, 62%, p<0.05 and 54%, 51%, 6%, not significant
